From PMC4493460, “Increasing the Biological Stability Profile of a New Chemical Entity, UPEI-104, and Potential Use as a Neuroprotectant Against Reperfusion-Injury” (Brain Sciences, 2015)
Entries after “also recorded” stand apart in the source; their conditions may differ. Where two headings read alike, the source gives them in different places. Blank lines part the entries; values can stand above or below the compound they belong to.

Experiments:
[1] = Stability in human plasma (Cerep, HPLC-MS/MS); format: in vitro ADME; settings: 1.0E−06 M, 37 °C; for half-life at 1 µM: human, plasma, 0-120 min
Description: The detection method was HPLC-MS/MS. At the end of incubation at each of the time points, acetonitrile was added to the incubation mixture followed by centrifugation. Samples were analyzed by HPLC-MS/MS and peak areas were recorded for each analyte. The area of precursor compound remaining after each of the time points relative to the amount remaining at time zero, expressed as percent, was calculated. […] Further experimental detail may be found in [30].
Further experimental detail may be found in [32].

[2] = test system: infarct volume following tMCAO; parameters: method as in PMID 22277933; settings: cited from earlier work
[3] = in vitro; settings: for microsomal CLint at 100 nM / % Compound Remaining, 1st / % Compound Remaining, 2nd / % Compound Remaining, Mean / half-life at 100 nM: human, microsomes; for % Compound Remaining, 1st / % Compound Remaining, 2nd / % Compound Remaining, Mean: 100 nM
Description: Briefly, incubation was performed at 37 °C for times between 0 and 60 min as indicated. The detection method was HPLC-MS/MS. Intrinsic clearance from microsomes (S9, cryopreserved hepatocytes, recombinant CYP, recombinant UGT) was assayed. Metabolic stability, expressed as percent of the parent compound remaining, was calculated by comparing the peak area of the compound at the time point relative to that at time 0. The half-life (T1/2) was estimated from the slope of the initial linear range of the logarithmic curve of compound remaining (%) vs. time, assuming the first-order kinetics.
A solution of each test compound (1000 ng/mL or 10 μM) was prepared as described above and infused into the TSQ Quantum source via syringe pump at a constant rate. Full scan MS analysis was conducted and total ion current chromatograms and corresponding mass spectra were generated for each test compound in both positive and negative ionization modes. The precursor ions for MS/MS were selected from either the positive or the negative mass spectrum, as a function of the respective ion abundance. In addition, product ion MS/MS analysis was performed in order to determine the appropriate selected fragmentation reaction for use in quantitative analysis. The final reaction monitoring parameters were chosen to maximize the ability to quantify the test compound when present within a complex mixture of components. Following identification of the specific SRM transition to be used for each test compound, the detection parameters were optimized using the automated protocol in the TSQ Quantum Compound Optimization Workspace software package (Thermo Scientific, MA, USA). Finally, the chromatographic conditions to be used for LC-MS analysis were identified by injection and separation of the analyte on a suitable LC column and adjustment of the gradient conditions as necessary. Further experimental detail may be found in [32].
Mobile Phase B: 6 mM ammonium formate/3 mM formic acid in water/acetonitryl (ACN; 1/9, v/v). Column: Hypersil GOLD DASH HTS, 2.1 × 20 mm, 3 micron (Thermo Scientific, MA, USA; see Table 1 for details).

[4] = test system: NADPH oxidase; parameters: method as in PMID 22277933, PMID 18511205; settings: compared with apocynin alone; cited from earlier work
[5] = parameters: method as in PMID 22277933; settings: animals injected i.v.; immediately, as early as 1 min after injection; previous work; cited from earlier work
[6] = test system: global ischemia; parameters: method as in PMID 16650838; settings: gerbils, given 5 min following 5 min of global ischemia, assessed four days later; cited from earlier work
[7] = test system: infarct volume, MCAO; parameters: method as in PMID 1299626, PMID 19417757, PMID 21946070, PMID 19175604, PMID 17697529; settings: cited from earlier work
[8] = parameters: method as in PMID 21172313; settings: cited from earlier work
[9] = test system: infarct volume following tMCAO; assay: Transient middle cerebral artery occlusion (tMCAO) ischemia-reperfusion injury, infarct volume by TTC staining; format: in vivo, Sprague-Dawley rats; settings: rats, 30 min occlusion, 5.5 h reperfusion
Description: All surgical procedures described below were approved by the University of Prince Edward Island Animal Care Committee and were in compliance with the requirements of the Canadian Council on Animal Care. Our surgical protocol has been described previously. Briefly, rats were anaesthetized with sodium thiobutabarbital (Inactin, Sigma Aldrich, St. Louis, MO, USA; 100 mg/kg, intraperitoneal; i.p.) and kept warm on a heating pad maintained at 37 ± 1 °C. A venous cannula was inserted into the right femoral vein to allow for all drug injections and supplemental anaesthesia, if required. Rats were then transferred to a stereotaxic frame to allow for surgical access to the right middle cerebral artery (MCA). As detailed in our previous publication, we used a 3-point occlusion of the MCA by inserting suture under the vessel and applying pressure, by gently lifting the sutures, to occlude flow by 100% (as confirmed by laser Doppler flowmetry). The period of occlusion lasted for 30 min, followed by a 5.5 h period of reperfusion, which was accomplished by removal of these sutures (transient ischemia model, tMCAO). […] Sections were then scanned (both sides) the next day, and infarct area was measured using imaging software (Image J; Scion Corporation, Frederick, MD, USA). […] Data was analyzed by an investigator blinded to the treatment groups. […]

Structure (SMILES): CC(C)[N+](C)(CCOC(=O)C1c2ccccc2Oc2ccccc21)C(C)C [Propantheline, reference compound]
half-life at 1 µM ([1]; read-out: Half-Life, 1st): 7.2 min
half-life at 1 µM ([1]; read-out: Half-Life, 2nd): 7.2 min
half-life at 1 µM ([1]; read-out: Half-Life, Mean): 7 min

Structure (SMILES): CCCOc1cc(N)ccc1C(=O)OCCN(CC)CC [Propoxycaine, reference compound]
half-life at 1 µM ([1]; read-out: Half-Life, 1st): < 30 min
half-life at 1 µM ([1]; read-out: Half-Life, 2nd): < 30 min
half-life at 1 µM ([1]; read-out: Half-Life, Mean): < 30 min

Structure (SMILES): COc1cc(C(C)=O)ccc1O [apocynin, 4-hydroxy-3-methoxyacetophenone]
Neuronal degeneration, neuronal death and microglial activation [6]: decreased neuronal degeneration and delayed neuronal death and microglial activation
Infarct volume ([7]; administered during occlusion of the middle cerebral artery): attenuation of infarct volume
Infarct volume benefit ([7]; administration delayed following the onset of reperfusion): benefits were lost

Structure (SMILES): O=C(O)CCCCC1CCSS1 (stereo not drawn) [LA, α-Lipoic acid]
Neuroprotection ([8]; 5 mg/kg (most effective dose), administered just prior to the beginning of reperfusion): did not result in significant neuroprotection
Neuroprotection ([8]; 5 mg/kg, administered prior to both occlusion and reperfusion): produced neuroprotection

Second part, led by results:

% Compound Remaining, 1st ([1]; incubation 0 min): 100.0%
% Compound Remaining, 2nd ([1]; incubation 0 min): 100.0%
% Compound Remaining, Mean ([1]; incubation 0 min): 100%
% Compound Remaining, 1st ([1]; incubation 30 min): 92.7%
% Compound Remaining, 2nd ([1]; incubation 30 min): 126.6%
% Compound Remaining, Mean ([1]; incubation 30 min): 110%
% Compound Remaining, 1st ([1]; incubation 60 min): 100.7%
% Compound Remaining, 2nd ([1]; incubation 60 min): 116.0%
% Compound Remaining, Mean ([1]; incubation 60 min): 108%
% Compound Remaining, 1st ([1]; incubation 90 min): 99.5%
% Compound Remaining, 2nd ([1]; incubation 90 min): 111.2%
% Compound Remaining, Mean ([1]; incubation 90 min): 105%
% Compound Remaining, 1st ([1]; incubation 120 min): 109.9%
% Compound Remaining, 2nd ([1]; incubation 120 min): 140.1%
% Compound Remaining, Mean ([1]; incubation 120 min): 125%
half-life at 1 µM ([1]; read-out: Half-Life, 1st): > 120 min
half-life at 1 µM ([1]; read-out: Half-Life, 2nd): > 120 min
half-life at 1 µM ([1]; read-out: Half-Life, Mean): > 120 min
microsomal CLint at 100 nM [3]: 6030 µL/min/mg
% Compound Remaining, 1st ([3]; 0 h): 100.0%
% Compound Remaining, 2nd ([3]; 0 h): 100.0%
% Compound Remaining, Mean ([3]; 0 h): 100%
% Compound Remaining, 1st ([3]; 0.25 h): 0.0%
% Compound Remaining, 2nd ([3]; 0.25 h): 0.0%
% Compound Remaining, Mean ([3]; 0.25 h): 0%
% Compound Remaining, 1st ([3]; 0.5 h): 0.0%
% Compound Remaining, 2nd ([3]; 0.5 h): 0.0%
% Compound Remaining, Mean ([3]; 0.5 h): 0%
% Compound Remaining, 1st ([3]; 0.75 h): 0.0%
% Compound Remaining, 2nd ([3]; 0.75 h): 0.0%
% Compound Remaining, Mean ([3]; 0.75 h): 0%
% Compound Remaining, 1st ([3]; 1 h): 0.0%
% Compound Remaining, 2nd ([3]; 1 h): 0.0%
% Compound Remaining, Mean ([3]; 1 h): 0%
half-life at 100 nM ([3]; 1st): 1.1 min
half-life at 100 nM ([3]; 2nd): < 15 min
half-life at 100 nM ([3]; Mean): ~1 min
Structure (SMILES): COc1cc(C(C)=O)ccc1OC(=O)CCCCC1CCSS1 (centres unmarked) [UPEI-100]
Dose at which infarct volume was reduced ([2]; same in vivo model of reperfusion-injury, previously observed): 0.1 mg/kg
Dose for equivalent neuroprotection compared to each parent compound (lipoic acid, apocynin), fold lower ([2]; tMCAO, previous work): 100 fold
Flags (detection of test compound in the assay matrix) [3]: not detected in the assay at any time point
Inhibition of NADPH oxidase [4]: inhibited NADPH oxidase
Detection in tissue samples / central nervous system following intravenous injection [5]: undetectable; also recorded: unable to detect; also recorded: could not be detected

% Compound Remaining, 1st ([1]; incubation 0 min): 100.0%
% Compound Remaining, 2nd ([1]; incubation 0 min): 100.0%
% Compound Remaining, Mean ([1]; incubation 0 min): 100%
% Compound Remaining, 1st ([1]; incubation 30 min): 89.3%
% Compound Remaining, 2nd ([1]; incubation 30 min): 112.0%
% Compound Remaining, Mean ([1]; incubation 30 min): 101%
% Compound Remaining, 1st ([1]; incubation 60 min): 95.5%
% Compound Remaining, 2nd ([1]; incubation 60 min): 98.6%
% Compound Remaining, Mean ([1]; incubation 60 min): 97%
% Compound Remaining, 1st ([1]; incubation 90 min): 82.9%
% Compound Remaining, 2nd ([1]; incubation 90 min): 76.4%
% Compound Remaining, Mean ([1]; incubation 90 min): 80%
% Compound Remaining, 1st ([1]; incubation 120 min): 77.2%
% Compound Remaining, 2nd ([1]; incubation 120 min): 90.1%
% Compound Remaining, Mean ([1]; incubation 120 min): 84%
half-life at 1 µM ([1]; read-out: Half-Life, 1st): 352 min
half-life at 1 µM ([1]; read-out: Half-Life, 2nd): 351 min
half-life at 1 µM ([1]; read-out: Half-Life, Mean): > 120 min
microsomal CLint at 100 nM [3]: 963 µL/min/mg
half-life at 100 nM ([3]; 1st): 7.3 min
half-life at 100 nM ([3]; 2nd): 7.1 min
half-life at 100 nM ([3]; Mean): ~7 min
Structure (SMILES): COc1cc(C(C)=O)ccc1OCCCCCC1CCSS1 (centres unmarked) [UPEI-104]
Infarct volume vs vehicle group ([9]; 0.1 mg/kg i.v. 30 min prior to MCA occlusion, p < 0.05): significantly lower
Effect on infarct volume as a function of dose ([9]; 0.001–0.1 mg/kg i.v. 30 min prior to MCA occlusion): dose-dependent reduction in infarct volume
